Assay results: patent publication US9926297B2, “Bicyclic AZA compounds as muscarinic M1 receptor and/or M4 receptor agonists” (Heptares Therapeutics Limited, priority 2014, dated 2018)

Experiments:
[1] = target: T1, human muscarinic M1 receptor (Homo sapiens, UniProt P11229); assay: Alphascreen Surefire phospho-ERK1/2 functional assay, M1; type: cell-based; conditions: for EC50 / % Emax cf. ACh, M1: CHO cells stably expressing human M1; for EC50: phospho-ERK1/2, * = variable results, read-out: pEC50 M1 (converted); for Emax: CHO, read-out: % Emax cf. ACh, M1, CHO cells stably expressing human M1; for Emax / % Emax cf. ACh, M1: relative to ACh
T1 sequence (P11229 1-460): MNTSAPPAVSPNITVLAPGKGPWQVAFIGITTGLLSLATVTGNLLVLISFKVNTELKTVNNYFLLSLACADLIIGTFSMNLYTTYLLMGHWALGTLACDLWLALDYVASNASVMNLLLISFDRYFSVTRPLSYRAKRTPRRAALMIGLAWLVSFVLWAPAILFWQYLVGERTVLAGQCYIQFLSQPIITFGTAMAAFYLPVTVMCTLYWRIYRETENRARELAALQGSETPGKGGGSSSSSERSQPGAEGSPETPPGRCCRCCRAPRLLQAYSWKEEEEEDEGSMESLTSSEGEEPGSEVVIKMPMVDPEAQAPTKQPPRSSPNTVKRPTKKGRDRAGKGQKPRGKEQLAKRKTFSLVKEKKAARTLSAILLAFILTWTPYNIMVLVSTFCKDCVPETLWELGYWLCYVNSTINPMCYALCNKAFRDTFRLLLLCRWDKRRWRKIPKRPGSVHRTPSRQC

[2] = target: T2, human muscarinic M4 receptor (Homo sapiens, UniProt P08173); assay: Alphascreen Surefire phospho-ERK1/2 functional assay, M4; type: cell-based; conditions: for EC50 / % Emax cf. ACh, M4: CHO cells stably expressing human M4; for EC50: phospho-ERK1/2, * = variable results, read-out: pEC50 M4 (converted); for Emax: CHO, read-out: % Emax cf. ACh, M4, CHO cells stably expressing human M4; for Emax / % Emax cf. ACh, M4: relative to ACh
T2 construct: expressed in transfected cells
T2 sequence (P08173 1-479): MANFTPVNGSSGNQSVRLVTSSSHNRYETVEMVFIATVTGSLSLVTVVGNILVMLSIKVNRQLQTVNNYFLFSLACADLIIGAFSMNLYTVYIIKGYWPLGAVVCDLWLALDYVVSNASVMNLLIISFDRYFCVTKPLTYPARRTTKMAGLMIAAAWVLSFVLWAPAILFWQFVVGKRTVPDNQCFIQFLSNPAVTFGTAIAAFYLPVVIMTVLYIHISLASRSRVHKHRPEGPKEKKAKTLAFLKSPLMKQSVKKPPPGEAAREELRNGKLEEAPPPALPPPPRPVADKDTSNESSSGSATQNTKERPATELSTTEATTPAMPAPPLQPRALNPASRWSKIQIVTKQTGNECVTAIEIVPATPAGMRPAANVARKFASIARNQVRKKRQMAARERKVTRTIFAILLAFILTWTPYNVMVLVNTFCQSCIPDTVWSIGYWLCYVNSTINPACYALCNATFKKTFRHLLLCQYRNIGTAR

[3] = target: T3, human muscarinic M2 receptor (Homo sapiens, UniProt P08172); assay: Alphascreen Surefire phospho-ERK1/2 functional assay, M2; conditions: for Emax: CHO, read-out: % Emax cf. ACh, M2, CHO cells stably expressing human M2
T3 sequence (P08172 1-466): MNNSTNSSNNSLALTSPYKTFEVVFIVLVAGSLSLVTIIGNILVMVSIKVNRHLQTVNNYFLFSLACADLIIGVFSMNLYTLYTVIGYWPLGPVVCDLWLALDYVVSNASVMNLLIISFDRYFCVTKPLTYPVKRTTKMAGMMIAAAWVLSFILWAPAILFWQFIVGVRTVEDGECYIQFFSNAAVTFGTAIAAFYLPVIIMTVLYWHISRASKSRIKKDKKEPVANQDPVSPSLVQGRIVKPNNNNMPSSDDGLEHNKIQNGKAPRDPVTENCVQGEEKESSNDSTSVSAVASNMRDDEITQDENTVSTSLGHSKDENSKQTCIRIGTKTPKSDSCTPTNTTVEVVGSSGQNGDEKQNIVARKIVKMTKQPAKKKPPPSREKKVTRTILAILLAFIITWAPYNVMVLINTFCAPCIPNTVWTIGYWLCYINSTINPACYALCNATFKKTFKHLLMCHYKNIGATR

[4] = target: human muscarinic M3 receptor (Homo sapiens, UniProt P20309); assay: Alphascreen Surefire phospho-ERK1/2 functional assay, M3; conditions: for Emax: CHO, read-out: % Emax cf. ACh, M3, CHO cells stably expressing human M3; for Emax / % Emax cf. ACh, M3: relative to ACh; for EC50: pEC50 M3, CHO cells stably expressing human M3
Sequence of human muscarinic M3 receptor (P20309 whole entry): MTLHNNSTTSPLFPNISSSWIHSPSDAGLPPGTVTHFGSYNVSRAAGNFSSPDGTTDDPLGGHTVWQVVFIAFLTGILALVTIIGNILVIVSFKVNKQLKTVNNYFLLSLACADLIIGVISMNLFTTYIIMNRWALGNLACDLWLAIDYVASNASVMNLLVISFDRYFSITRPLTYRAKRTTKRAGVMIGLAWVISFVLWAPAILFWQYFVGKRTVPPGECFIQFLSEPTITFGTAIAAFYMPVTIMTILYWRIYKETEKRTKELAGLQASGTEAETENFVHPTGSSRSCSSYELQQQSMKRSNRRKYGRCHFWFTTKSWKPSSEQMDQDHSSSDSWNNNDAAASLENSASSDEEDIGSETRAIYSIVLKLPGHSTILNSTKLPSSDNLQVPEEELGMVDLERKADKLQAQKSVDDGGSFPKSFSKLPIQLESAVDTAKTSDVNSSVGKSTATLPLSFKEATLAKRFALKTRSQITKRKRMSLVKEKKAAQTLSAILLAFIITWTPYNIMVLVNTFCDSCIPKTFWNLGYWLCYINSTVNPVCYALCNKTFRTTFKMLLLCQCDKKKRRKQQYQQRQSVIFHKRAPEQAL

[5] = phospho-ERK1/2, * = variable results
[6] = CHO cells stably expressing human M3

SMILES | EC50 [1] [nM] | Emax [1] [%] | EC50 [2] [nM] | Emax [2] [%] | EC50 [3] [nM] | Emax ([3]; relative to ACh) [%] | Emax [4] [%] | EC50 [4, 5] [nM] | % Emax cf. ACh, M1 [1] [%] | % Emax cf. ACh, M4 [2] [%] | % Emax cf. ACh, M3 [4, 6] [%] | pEC50 M2 ([3]; CHO cells stably expressing human M2, phospho-ERK1/2, * = variable results) | % Emax cf. ACh, M2 ([3]; CHO cells stably expressing human M2, relative to ACh) [%] | pEC50 M3 ([4]; CHO cells stably expressing human M3, phospho-ERK1/2, * = variable results)
CCOC(=O)N1CCC2(CC(N3CCC([C@@H]4C[C@H](F)CN4C(=O)CC)CC3)C2)C1 (single isomer, unassigned) [2-59 Isomer 2] | 3160 | 28 | 251 | 67 | > 20000 | 11 | 7 | > 20000 |  |  |  |  |  | 
CCOC(=O)N1CCC2(CC(N3CCC([C@@H]4CCCN4C(=O)CCc4ccccn4)CC3)C2)C1 (single isomer, unassigned) [2-62 Isomer 2] | > 20000 | 20 | 15.8 | 65 | > 20000 | 6 | 8 | > 20000 |  |  |  |  |  | 
CCOC(=O)N1CCC2(CC(N3CCC([C@@H]4CCCN4C(=O)N(C)Cc4ccccn4)CC3)C2)C1 (single isomer, unassigned) [2-63 Isomer 2] | 251 | 34 | 63.1 | 60 | > 20000 | 0 | 4 | > 20000 |  |  |  |  |  | 
CCOC(=O)N1CCC2(CC(N3CCC([C@@H]4CCCN4C(=O)OCc4ccccn4)CC3)C2)C1 (single isomer, unassigned) [2-64 Isomer 2] | > 20000 | 12 | 3.16 | 41 | > 20000 | 6 | 8 | > 20000 |  |  |  |  |  | 
CCOC(=O)N1CCC2(CC(N3CCC([C@@H]4CCCN4C(=O)CCNC(=O)OCc4ccccc4)CC3)C2)C1 (single isomer, unassigned) [2-65 Isomer 2] | 158 | 60 | 7.94 | 107 | > 20000 | 1 | 1 | > 20000 |  |  |  |  |  | 
CCOC(=O)N1CCC2(CC(N3CCC([C@@H]4CCCN4CCF)CC3)C2)C1 (single isomer, unassigned) [2-68 Isomer 2] | 1000 | 32 | 63.1 | 73 | > 20000 | 4 | 6 | > 20000 |  |  |  |  |  | 
CCOC(=O)N1CCC2(CC(N3CCC(C4c5ccccc5CN4C(=O)NC)CC3)C2)C1 (single isomer, unassigned) [2-76 Isomer 1, ethyl 2-(4-(2-(methylcarbamoyl)-isoindolin-1-yl)piperidin-1-yl)-6-azaspiro[3.4]octane-6-carboxylate] | 126 | 82 | 39.8 | 114 | > 20000 | 10 |  | > 20000 |  |  | 35 |  |  | 
CCOC(=O)N1CCC2(CC(N3CCC(C4c5ccccc5CN4C(=O)NC)CC3)C2)C1 (single isomer, unassigned) [2-76 Isomer 2, ethyl 2-(4-(2-(methylcarbamoyl)-isoindolin-1-yl)piperidin-1-yl)-6-azaspiro[3.4]octane-6-carboxylate] | 50.1 |  | 12.6 |  |  |  |  |  | 88 | 107 | 14 | < 4.7 | 16 | < 4.7
CCOC(=O)N1CCC2(CC(N3CCC([C@@H]4CCCN4c4ccccc4)CC3)C2)C1 (single isomer, unassigned) [2-77 Isomer 2] | 251 | 51 | 6.31 | 105 | > 20000 | 14 | 47 | > 20000 |  |  |  |  |  | 
COC(=O)N1CCC2(CC(N3CCC([C@@H]4CCCN4c4ccccn4)CC3)C2)C1 (single isomer, unassigned) [2-78 Isomer 2] | > 20000 | 11 | 126 | 49 | 12600 | 27 | 5 | > 20000 |  |  |  |  |  | 
CCOC(=O)N1CCC2(CC(N3CCC([C@@H]4CCCN4c4ccccn4)CC3)C2)C1 (single isomer, unassigned) [2-79 Isomer 2] | 501 | 37 | 31.6 | 70 | > 20000 | 2 | 19 | > 20000 |  |  |  |  |  | 

Further lines, results first:

EC50 [1] [nM] | Emax [1] [%] | EC50 [2] [nM] | Emax [2] [%] | EC50 [3] [nM] | Emax ([3]; relative to ACh) [%] | Emax [4] [%] | EC50 [4, 5] [nM] | % Emax cf. ACh, M1 [1] [%] | % Emax cf. ACh, M4 [2] [%] | % Emax cf. ACh, M3 [4, 6] [%] | pEC50 M2 ([3]; CHO cells stably expressing human M2, phospho-ERK1/2, * = variable results) | % Emax cf. ACh, M2 ([3]; CHO cells stably expressing human M2, relative to ACh) [%] | pEC50 M3 ([4]; CHO cells stably expressing human M3, phospho-ERK1/2, * = variable results) | SMILES
1000 | 66 | 31.6 | 156 | > 20000 | 45 | 9 | > 20000 |  |  |  |  |  |  | CCOC(=O)N1CCC2(CC(N3CCC([C@@H]4CCCN4C(=S)CC)CC3)C2)C1 (single isomer, unassigned) [2-58 Isomer 2]
39.8 | 96 | 1.26 | 115 | > 20000 | 18 | 8 | > 20000 |  |  |  |  |  |  | CCOC(=O)N1CCC2(CC(N3CCC([C@@H]4CCCN4C(=O)CCN)CC3)C2)C1 (single isomer, unassigned) [2-66 Isomer 2]
> 20000 | 19 | 20 | 79 | > 20000 | 67 | 1 | > 20000 |  |  |  |  |  |  | CCOC(=O)N1CCC2(CC(N3CCC([C@@H]4CCCN4C(=O)OCCNC)CC3)C2)C1 (single isomer, unassigned) [2-67 Isomer 2]
398 | 87 | 12.6 | 110 | > 20000 | 3 | 2 | > 20000 |  |  |  |  |  |  | CCOC(=O)N1CCC2(CC(N3CCC([C@@H]4CCCN4CC(F)(F)F)CC3)C2)C1 (single isomer, unassigned) [2-69 Isomer 2]
1580 |  | 31.6 |  | > 20000 | 1 | 3 | > 20000 | 93 | 111 |  |  |  |  | CCOC(=O)N1CCC2(CC(N3CCC([C@@H]4CCCN4CCC(F)(F)F)CC3)C2)C1 (single isomer, unassigned) [2-70 Isomer 2]
794 | 30 | 79.4 | 52 | > 20000 | 13 | 10 | > 20000 |  |  |  |  |  |  | CCOC(=O)N1CCC2(CC(N3CCC([C@@H]4CCCN4CC(=O)OC)CC3)C2)C1 (single isomer, unassigned) [2-72 Isomer 2]
> 20000 | 18 | 79.4 | 54 | > 20000 | 16 | 8 | > 20000 |  |  |  |  |  |  | CCOC(=O)N1CCC2(CC(N3CCC([C@@H]4CCCN4Cc4ccccc4)CC3)C2)C1 (single isomer, unassigned) [2-74 Isomer 2]
316 | 80 | 2.51 | 109 | > 20000 | 6 | 4 | > 20000 |  |  |  |  |  |  | CCOC(=O)N1CCC2(CC(N3CCC([C@@H]4CCCN4C(=S)NC)CC3)C2)C1 (single isomer, unassigned) [2-75 Isomer 2]
